The values below come from publication PMC5342726, “Identification of small molecule inhibitors of ERCC1-XPF that inhibit DNA repair and potentiate cisplatin efficacy in cancer cells” (Oncotarget, 2016).

Experiment [1] has as its system H460 cells. Put plainly: Cisplatin interstrand crosslink repair by comet assay. It is filed as cell-based. Conditions: 72 hours, cisplatin at IC90 alone.
Experimental: (B) After treatment, comet assay was performed as described at different time intervals (0, 24, 48 and 72 h). The percentage of interstrand crosslinks remaining was calculated using olive tail moment. Results are represented as mean ± SEM of three independent experiments.
The data is expressed as the percentage of crosslinks remaining at the time points assessed.
Cells were treated with compound (Hit control (9:1 DMSO-glycerol). After incubation at 37°C 1 or Hit 2) and cisplatin or just cisplatin alone in serum for 30 minutes, 2 μL of the pre-incubate was diluted into a free media. […] Cells were further treated with 100 μM
Cells were then trypsinized, pelleted and resuspended in 1% low melting point agarose.
The subject of experiment [2] is H460 cells. Put plainly: Cisplatin intrastrand adduct repair by ELISA. It is filed as cell-based. The following applies: 72 hours (last time point), compound 15 μM 2 h then cisplatin at IC90 2 h; relative to 0 hour. A general note: In an ELISA, binding on a coated surface is turned into a signal by an enzyme label.
For experiment [3], the system named is H460 xenografts. The following applies: 16168 20 mg/kg i.p. daily or cisplatin 3 mg/kg i.p. twice a week, 10 days.
The target of experiment [4] is T1, ERCC1-XPF (Homo sapiens, UniProt P07992+Q92889).
T1 construct: made in house; host or cells: Sf9 insect cells, baculovirus (obtained from Aziz Sancar)
T1 sequence (Q92889 1-916): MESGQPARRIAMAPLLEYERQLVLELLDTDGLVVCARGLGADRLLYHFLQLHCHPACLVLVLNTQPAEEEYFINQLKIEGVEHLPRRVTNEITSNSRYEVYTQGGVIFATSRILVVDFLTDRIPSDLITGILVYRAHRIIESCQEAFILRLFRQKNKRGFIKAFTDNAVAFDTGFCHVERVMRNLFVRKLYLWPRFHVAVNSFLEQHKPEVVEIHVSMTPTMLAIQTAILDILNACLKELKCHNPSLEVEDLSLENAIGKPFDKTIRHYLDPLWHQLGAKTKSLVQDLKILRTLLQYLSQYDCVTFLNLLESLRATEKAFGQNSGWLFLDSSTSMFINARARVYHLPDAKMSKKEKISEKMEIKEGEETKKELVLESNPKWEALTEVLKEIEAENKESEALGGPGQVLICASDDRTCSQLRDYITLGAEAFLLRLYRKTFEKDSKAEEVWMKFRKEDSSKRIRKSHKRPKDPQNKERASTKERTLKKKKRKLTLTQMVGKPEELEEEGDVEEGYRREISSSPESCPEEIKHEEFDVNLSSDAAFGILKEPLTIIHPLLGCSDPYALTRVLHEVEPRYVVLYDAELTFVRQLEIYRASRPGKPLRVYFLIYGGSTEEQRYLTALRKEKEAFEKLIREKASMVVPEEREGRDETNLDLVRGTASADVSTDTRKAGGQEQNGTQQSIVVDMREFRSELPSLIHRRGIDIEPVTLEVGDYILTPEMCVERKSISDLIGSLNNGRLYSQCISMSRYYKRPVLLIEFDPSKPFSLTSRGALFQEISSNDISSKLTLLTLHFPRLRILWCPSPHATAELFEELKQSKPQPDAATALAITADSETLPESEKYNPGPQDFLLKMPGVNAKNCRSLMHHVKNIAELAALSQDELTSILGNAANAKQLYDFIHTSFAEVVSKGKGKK
T1 sequence (P07992 1-297): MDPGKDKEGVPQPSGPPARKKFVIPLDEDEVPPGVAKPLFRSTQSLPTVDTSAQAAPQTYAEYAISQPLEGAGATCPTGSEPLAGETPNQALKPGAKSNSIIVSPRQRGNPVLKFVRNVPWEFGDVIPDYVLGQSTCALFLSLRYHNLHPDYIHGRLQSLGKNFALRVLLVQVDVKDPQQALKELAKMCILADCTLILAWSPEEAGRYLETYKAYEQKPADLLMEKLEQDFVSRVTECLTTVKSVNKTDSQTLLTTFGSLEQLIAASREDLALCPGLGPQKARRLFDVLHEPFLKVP
Put plainly: HTS fluorescence assay of ERCC1-XPF endonuclease activity. The experiment is classed as biochemical. The following applies: IC50s calculated by CompuSyn, SD from 3 plots, read-out: ERCC1-XPF IC50. The text has this:
To screen for ERCC1-XPF inhibition, an existing in vitro assay was optimized to a 96-well plate format to allow for screening of compound libraries (NCI-DTP diversity set). These compounds and subsequent vialed compounds were from the Drug Synthesis and Chemistry Branch, Developmental Therapeutics Program, Division of Cancer Treatment and Diagnosis at the National Cancer Institute. We used purified ERCC1-XPF (Supplementary Figure S1) and describe the purification procedure in Supplementary Information. The initial cuvette-based assay was optimized for DNA, MgCl2 concentrations as well as the incubation time to be used in the fluorescence assay in a 96 well plate format (Supplementary Figure S2). The assay consists of a 10 nM DNA (Q+Fl substrate annealed, described below) and 7.5 nM ERCC1-XPF protein in buffer containing 50 mM Tris-HCl pH8.0, 2 mM MgCl2, 0.1 mM BSA, and 0.5 mM β-mercaptoethanol. For preliminary screening, 150 μL of DNA was added to each well and the fluorescence signal was measured at 525 nm following excitation at 485 nm. Compounds or controls were then added to individual wells for a total of 80 compounds on each plate and the fluorescent signal was re-measured. We initially ran the screen using 50 μM compound and then repeated using 10 μM compound. 16 controls were used per plate, which consisted of buffer alone, DNA alone, ERCC1-XPF alone, 10 nM fluorescein ssDNA (positive signal), and 10 nM Q-Fl DNA with 7.5 nM ERCC1-XPF (positive signal). 7.5 nM ERCC1-XPF was added to each well containing the compounds and DNA and incubated for 30 minutes at 37°C after which the fluorescent signal was measured again.
The synthetic DNA substrate mimics a native forked ssDNA-dsDNA substrate of ERCC1-XPF (Figure 1A). This forked DNA substrate has a dsDNA region (14 bases) and a region containing two ssDNA flaps (12 bases each). One 26-mer DNA oligonucleotide contains a site-specific fluorescein modification at the indicated position (Fl Oligo: 5' - GCCAGCGCTCGGAT(AminoC6dT)(FLSN) TTTTTTTTTTT). The semi-complementary strand was synthesized containing a DABCYL quencher (Q) molecule at the depicted position (Q Oligo: 5' - TTTTTTTTTTT (AminoC6dT)(Dabcyl) ATCCGAGCGCTGGC; Figure 1A). The fluorescein (*) molecule has an excitation peak centered at 485 nm and an emission peak centered at 525 nm. The quencher (Q) molecule is able to quench the fluorescence signal of the fluorescein when it is in close proximity. The design of the semi-duplex DNA substrate is such that the fluorescein and DABCYL quencher are directly opposite one another at the double-stranded and single-stranded DNA junction (Figure 1A). […] Upon cleavage by ERCC1-XPF, (~4-5 bases from the dsDNA-ssDNA) the fluorescein label on the cleaved DNA is released into solution and results in a significant increase in fluorescence as the quencher is no longer in close proximity. The DNA substrate is also incorporated with a restriction enzyme site (HhaI) within the duplex DNA that results in a cleavage pattern similar to ERCC1-XPF. This serves as a positive control and allows assessment of ERCC1-XPF cleavage product. This DNA substrate is used in the solution based fluorescence screening assay to screen for inhibitors of ERCC1-XPF endonuclease activity. In the 96 well platform, the Z factor was calculated to be ~0.87 indicating a highly robust assay and highly suitable for a HTS. A Molecular Devices Spectramax M5 plate reader was used for fluorescence detection. The DNA substrate was the same for gel-based assays besides the fluorescent/quencher modifications and 5'-labeling using γ-ATP^32. For the secondary screen, the reaction was setup in a tube with 10 nM DNA, 7.5 nM XPF-ERCC1, 20 U/ml of HhaI, or 7.5 nM XPG (Supplementary Figure S3A) in nuclease reaction buffer with compound titration and incubated at 37°C for 30 minutes. The reaction was stopped by chelating the metal in the buffer and read in the Spectramax M5 plate reader.

Experiment [5] concerns H460 cells. Put plainly: Colony survival assay in H460 cells. It is filed as cell-based. The following applies: SAR, Supplementary Figure S6; cell line not stated. The method, then:
We used H460, NSCLC cells, to first assess the impact on colony survival by knocking down ERCC1-XPF in these cells. […] Next, to assess if colony survival is affected we titrated cisplatin in these cells using a fixed concentration of Hit 1(50 μM) or Hit 2 (25 and 50 μM). […] Next, we assessed cisplatin potentiation by treating cells at a fixed cisplatin concentration (cisplatin IC50 in H460 cells) with Hit 1 or 2 titration (Figure 4C, filled symbols). H460 cells were treated with compound for a total of 4 hours while cisplatin was added to the media after 2 hours of compound pre-treatment. […] We also titrated Hit 1 or Hit 2 alone in these cells and treated for 4 h. […] We also assessed the effects of Hit 2 in another NSCLC cell line (H1299), which was either ERCC1 wildtype (WT) or knockout (KO) (Figure 4E).
Colony survival assay in a total reaction volume of 2.4 mL in a six-well plate Cells were split and seeded at a density of 300-400 format. Cells were transfected for 48 hours after which cells in a 60 mm plate and incubated overnight. The next complete media was added for 24 hours. Cells were day, the cells were treated with a fixed concentration of the seeded for clones and clones were selected using standard compound (Hit 1 or Hit 2) with cisplatin titration. After methods. ERCC1 KO clones were tested for ERCC1 treatment, fresh complete medium with antibiotics was and XPF expression by Western Blot using the ERCC1 added and the cells were then allowed to form colonies. In antibodies, 8F1, FL-297, and D-10 and the XPF antibody another method, the cells were seeded onto 60mm plates 3F2/3 (Santa Cruz).
Validation of genome editing was performed alone or titrated with a fixed concentration of cisplatin by PCR amplification with Taq polymerase (NEB) of (IC50 for the cell line used). Post treatment, the cells were exon 2 within the genomic DNA using the forward allowed to form colonies. Colonies were fixed with 95% primer: 5’ […]
methanol and stained with 0.2 % crystal violet. Colonies 3’ and the reverse primer: 5’ […]
with ≥50 cells were counted using a light microscope. Cell […] 3’. PCR product was cloned […]
survival was expressed as the ratio of average number of into a linearized pCR4-TOPO vector and transformed colonies in drug treated cells versus control cells x 100. into OneShot TOP10 E. coli using the TOPO-TA Cloning The experiment was done in triplicate for each drug Kit for Sequencing (Thermofisher). Bacterial colonies concentration. We have previously published the methods were selected with ampicillin and plasmid was extracted for ERCC1 and XPF knockdowns, which were used as using standard procedures. Plasmid was sequenced by controls. Briefly, cells were seeded onto six-well plates GeneWiz using an M13R primer. Potential sites of off-target editing in coding sequences were identified during
(density 2.5 × 10^5 cells /well) in antibiotic free media. guide RNA design with the Optimized CRISPR Design Two transfections were done at 24 h interval in each cell Tool. Primers were designed to amplify the exons line to knockdown ERCC1-XPF together according to containing the potential off-target sites and PCR product the manufacturer ’s (Dharmacon’s smartpools) protocol. was sequenced by GeneWiz. A list of specific off-target Addition of lipid reagent (Dharmafect 2, Dharmacon) sites and primers used to assess these off-target effects are […]

As to `N.N.[Cl][Pt][Cl]` [Cisplatin, cis-diammine-dichloroplatinum (II)], in experiment [1], the ICLs remaining is reported as 1-5%. Besides, the intrastrand adducts remaining in experiment [2] is reported as ~ 15%. For the same compound, the “tumor growth, single agent” value in experiment [3] is reported as “initial tumor response that delayed tumor growth”.
Consider `O=S(=O)(NCCO)c1cc[c]([Sb](=[O])([OH])[OH])cc1` [NSC13776], for which the IC50 in experiment [4] was 1150 ± 960 nM.
On the same count and under the same terms, for `NC(=O)C[S+]([O-])CC(N)C(=O)O` (stereo not shown) [NSC14161] the value was 790 ± 350 nM.
Still for that read-out and setting: the figure for `C[C@@H](O)CN(CCN(C[C@@H](C)O)C[C@@H](C)O)C[C@@H](C)O.O=[N+]([O-])O.[Cu]` [NSC103019] is 530 ± 128 nM.
As to `Oc1cc(O)c2c(c1)O[C@H](c1ccc(O)c(O)c1)[C@@H](O)[C@@H]2c1c(O)cc(O)c2c1O[C@H](c1ccc(O)c(O)c1)[C@@H](O)C2` [Procyanidin B3], the “potentiation of cisplatin by structural analogues in cell culture / colony survival” value in experiment [5] is reported as “activity for only one of the structural analogues”.

A word on the IC50: it is the concentration at which inhibition is half-maximal.
